Results: patent US12083168B2, “Treatment and detection of inherited neuropathies and associated disorders” (University of Miami, priority 2019, dated 2024)

Key:
[1] = system: aldose reductase (AR) (AKR1B1 gene); assay: Knock-down of aldose reductase by antisense oligonucleotide, Western blot normalized to β-tubulin; format: cell-based, Homo sapiens; conditions: SORD patient fibroblast and control fibroblasts; scrambled ASO (AR-S 1A) as control
Protocol: FIGS. 15A-15D. […] This was carried out in a SORD patient fibroblast and control fibroblasts and normalized to β-tubulin and measured via Western blot (FIGS. 15C-15D).
Fibroblasts were lysed in RIPA buffer (ThermoFisher) containing protease inhibitor (Roche) and sonicated for 5 minutes with the Bioruptor sonication device (Diagenode). Cell lysates were centrifuged at 13,000×g for 10 minutes at 4° C., and the supernatant was collected for protein quantification (Pierce BCA Protein Assay Kit). 30 μg of protein sample was mixed with Bolt LDS Sample Buffer and Sample Reducing Agent (ThermoFisher) and heated at 90° C. for 5 min. Samples were loaded on Bolt 4-12% Bis-Tris Plus mini-gel followed by transfer into a nitrocellulose membrane (Bio-Rad). Membrane was blocked with 5% non-fat milk and incubated with anti-SORD (ab189248, Abcam) antibody for 2 hours, washed with TBS containing 0.01% Tween 20 (Bio-Rad) and incubated with a secondary anti-rabbit antibody (Cell Signaling). Membrane was subsequently incubated with GAPDH primary antibody (Santa Cruz) and secondary anti-mouse antibody (Cell Signaling). Chemoluminescence detection was performed with the SuperSignal West Pico PLUS Chemiluminescent Substrate and imaged with the FluorChem E (ProteinSimple).

[2] = system: patient fibroblasts lacking functional SORD; assay: Intracellular sorbitol level in patient fibroblasts (UPLC-MS/MS, normalised to protein content); format: cell-based, human; conditions: 72 hrs, Epalrestat 100 μM, Ranirestat 10 μM, vs DMSO
Protocol: Asynchronous cell cultures were grown to approximately 80% confluency and treated with epalrestat (100 μM), ranirestat (10 μM) or DMSO for 72 hours. Media containing the drugs or DMSO were changed every 24 hours.
Sorbitol determination in human fibroblast lysates was performed in ultra-performance liquid chromatography-tandem mass spectrometry (UPLC-MS/MS) (Waters Acquity UPLC & TQD mass spectrometer—Waters, Milford, MA, USA). […] Lysate samples underwent protein precipitation with Acetonitrile (1:5), ten-time dilution with Acetonitrile-water (50/50) and clean up on Oasis HLB cartridges (10 mg/1 ml), before injection in UPLC (3 μL). UPLC conditions: column, BEH Amide 1.7 μm (2.1×100 mm) at 88° C., eluent A, Acetonitrile 90%-water 5%-Isopropanol 5%, eluent B, Acetonitrile 80%-water 20%, gradient elution 0 min., 100% A, 3.6 min. 100% B, flow rate, 0.45 ml/min. The retention time of sorbitol was 2.7 min.
The effect of two commercially available aldose reductase inhibitors (ARI), Epalrestat and Ranirestat, were tested on intracellular sorbitol accumulation in patient fibroblasts lacking functional SORD. Patient and control fibroblasts were grown for 72 hrs in the presence or absence of Epalrestat (100 μM) or Ranirestat (10 μM) and intracellular sorbitol levels were measured thereafter.

[3] = system: Sodh2MB01265/MB01265 flies; assay: Locomotor activity (negative geotaxis assay), Sodh2 mutant flies; format: in vivo, Drosophila melanogaster; conditions: 80 μM in food, vs yw control flies
Protocol: […] Equal amount of DMSO was mixed into the fly food as control. The vials were dried at room temperature for 12 h before feeding.
For lifespan assay, 100 newly enclosed female flies of each group were collected and placed in vials of 20 individuals. Flies were transferred into new vials every 2 days and the number of dead flies was counted. Survival data was plotted using Kaplan-Meier plot and compared between groups using log-rank test. For negative geotaxis behavior assay, 10 age-matched female flies were placed in a vial marked with a black line drawn horizontally 8 cm above the bottom. Flies were given 60 min to fully recover from CO2 anesthesia, and were gently tapped onto the bottom and given 10 s to climb. Flies that crossed the 8 cm line were counted. For each vial, this assay was repeated 10 times, and 10 independent vials of each group (a total 100 flies per group) were tested. To minimize observer-expectancy bias, this assay was performed with the examiner masked to the group assignment.

[4] = system: flies with neuronal specific knockdown of both Sodh1 and Sodh2; assay: Locomotor activity (negative geotaxis assay), Sodh1 and Sodh2 double knockdown flies; format: in vivo, Drosophila melanogaster; conditions: neuronal specific knockdown of Sodh1 and Sodh2, 80 μM in food, vs yw control flies
Protocol: FIG. 7. Treatment with aldose reductase inhibitors Epalrestat and Ranirestat restore locomotor function in Sodh1 and Sodh2 double knockdown flies. Locomotor activity of control flies (yw) feeding with DMSO (dots, first data point from the left for each DAE point indicated), or flies with neuronal specific knockdown of Sodh1 and Sodh2 feeding with DMSO (squares, second data point from the left for each DAE point indicated), 80 μM Epalrestat (squares, third data point from the left for each DAE point indicated), or 80 μM Ranirestat (squares, forth data point from the left for each DAE point indicated). n=10 in each group. Data are presented as mean±s.d. Statistical analysis was performed using Two-Way ANOVA followed by post-hoc Tukey's multiple comparison test. ***P<0.001, ****P<0.0001. […] Equal amount of DMSO was mixed into the fly food as control. The vials were dried at room temperature for 12 h before feeding. For lifespan assay, 100 newly enclosed female flies of each group were collected and placed in vials of 20 individuals. Flies were transferred into new vials every 2 days and the number of dead flies was counted. Survival data was plotted using Kaplan-Meier plot and compared between groups using log-rank test. […] Flies that crossed the 8 cm line were counted. […]

[5] = system: Sodh2MB01265/MB01265 mutant flies; assay: Age-dependent synaptic degeneration in the lamina (vacuoles, BRP immunostaining, confocal microscopy); format: in vivo, Drosophila melanogaster
Protocol: FIGS. 4A-G. Treatment with aldose reductase inhibitors Epalrestat and Ranirestat decrease sorbitol level and restore function. (FIG. 4A) Intracellular sorbitol level as measured by UPLC and normalised to protein content in fibroblasts from healthy controls (n=5, circle dots) and patients carrying biallelic nonsense mutations in SORD (n=5, square dots) after three days of treatment with Epalrestat 100 μM, Ranirestat 10 μM or DMSO. (FIG. 4B) Sorbitol level as measured by UPLC from brain/head homogenates and normalised to protein concentration from wild-type (yw, empty circle dots), Sodh2^MB01265/MB01265 (full circle dots) and neuron-specific knock-down of Sodh1 and […] (square dots) Drosophilae at 10 days after eggs enclosure. Sodh2 Mimic and Sodh1 and Soh2 RNAi Drosophilae were fed with either 80 μM Epalrestat, 80 μM Ranirestat or DMSO. The graphs show the mean±s.d. A two-tailed t-test was performed to compare sorbitol level. Statistical significance is indicated as *, ** or *** if P-value <0.05, <0.01 or <0.001, respectively, unless otherwise specified. All experiments were repeated independently twice with similar results. (FIG. 4C) Locomotor activity of control flies (yw) feeding with DMSO, Sodh2^MB01265/MB01265 flies feeding with DMSO, 80 μM Epalrestat, or 80 μM Ranirestat (n=10 in each group). Data are presented as mean±s.d. Statistical analysis was performed using Two-Way ANOVA followed by post-hoc Tukey's multiple comparison test. *P<0.05, ***P<0.001 (FIGS. 4D-4F) Laminae of Sodh2^MB01265/MB01265 homozygous flies at 10 DAE and 40 DAE fed with DMSO (FIG. 4D), 80 μM Epalrestat (FIG. 4E), or 80 μM Ranirestat (FIG. 4F). Arrowheads indicate the lamina vacuoles. Boxes indicate higher magnification areas of the lamina. The intensity of BRP is indicated. […] (FIG. 4G) Quantification of the vacuole number, size, and BRP intensity of (FIGS. 4D-4F). n=3. […]
Brain dissection and staining were carried out as previously described (Brazill et al., J Vis Exp. 2018; (138)). […] Images were processed and analyzed using FluoView 10-ASW (Olympus).

[6] = system: Sodh2MB01265/MB01265 Drosophila; assay: Sorbitol level in fly brain/head homogenates (UPLC); format: in vivo, Drosophila melanogaster; conditions: Sodh2MB01265/MB01265 flies at 10 DAE; fed from 2 DAE, 80 μM / 80 μg/ml in food
Protocol: (FIG. 4B) Sorbitol level as measured by UPLC from brain/head homogenates and normalised to protein concentration from wild-type (yw, empty circle dots), Sodh2^MB01265/MB01265 (full circle dots) and neuron-specific knock-down of Sodh1 and Sodh1 by RNAi (square dots) Drosophilae at 10 days after eggs enclosure. Sodh2 Mimic and Sodh1 and Soh2 RNAi Drosophilae were fed with either 80 μM Epalrestat, 80 μM Ranirestat or DMSO. The graphs show the mean±s.d. A two-tailed t-test was performed to compare sorbitol level. Statistical significance is indicated as *, ** or *** if P-value <0.05, <0.01 or <0.001, respectively, unless otherwise specified.
Lysate samples underwent protein precipitation with Acetonitrile (1:5), ten-time dilution with Acetonitrile-water (50/50) and clean up on Oasis HLB cartridges (10 mg/1 ml), before injection in UPLC (3 μL). UPLC conditions: column, BEH Amide 1.7 μm (2.1×100 mm) at 88° C., eluent A, Acetonitrile 90%-water 5%-Isopropanol 5%, eluent B, Acetonitrile 80%-water 20%, gradient elution 0 min., 100% A, 3.6 min. 100% B, flow rate, 0.45 ml/min. The retention time of sorbitol was 2.7 min. MS/MS conditions: interface, Electrospray interface in negative ion mode, Multiple Reaction Monitoring acquisition, m/z 180.9→88.9 (CV 24, CE 15).
Unless specified, all flies were kept on cornmeal-molasses-yeast medium at 25° C., 65% humidity, with 12 h light/12 h dark cycles. […]

[7] = Sodh2MB01265/MB01265 flies, at both 10 and 40 DAE, 80 μM in food

AR 1A: antisense oligonucleotide (ASO) targeting aldose reductase (AKR1B1), SEQ ID NO: 22, GTTTAAGATCATCTCCACCT, modified backbone (modified backbone, type not given here)
aldose reductase protein level (knock-down) [1]: Significant knock-down

O=C1C[C@@]2(C(=O)N1)C(=O)N(Cc1ccc(Br)cc1F)C(=O)c1cccn12 [Ranirestat]
intracellular sorbitol level [2]: significant reduction of sorbitol to a level comparable to controls | locomotor activity [3]: rescued to the levels of yw control flies | locomotor activity [4]: rescued to the levels of yw control flies | localization of synaptic cytomatrix protein BRP [5, 7]: restored the localization of synaptic cytomatrix protein BRP | number of lamina vacuoles [5, 7]: reduced the number of vacuoles | age-dependent synaptic defects ([5]; Sodh2MB01265/MB01265 mutant flies, drug feeding): restored the age-dependent synaptic defects | sorbitol level in fly heads [6]: significant reduction of sorbitol level
